One data set concerns Serratia marcescens. Put plainly: MIC, twofold serial broth dilution (Table I). The class given is cell-based. The conditions noted are these: strain ISM 68/189, Mueller Hinton Broth, 37° C, 24 hours, read-out: Minimum inhibitory concentration (MIC). (Dilution methods test growth across graded concentrations, often in twofold steps.)
The next data set concerns Brucella abortus. The data set can be described thus: microbe, parasite or virus in culture. The conditions noted are these: 24 h, read-out: Minimum inhibitory concentration (MIC). The format is cell-based.
For a further data set, the system named is Escherichia coli. Put plainly: MIC, twofold serial broth dilution (Table I). To be noted: ATCC19138, strain ATCC 19138 0 group 6, Tryptose Phosphate Broth, 37° C, 24 hours, read-out: Minimum inhibitory concentration (MIC). The class given is cell-based.
The test system of the next data set is Klebsiella pneumoniae. Put plainly: MIC against clinical isolates, broth dilution test (Table II). The conditions noted are these: for MIC: Klebsiella pneumoniae, 24 h.
The nature of another data set: Solubility. The class given is physicochemical. The conditions noted are these: crystals.
The test system of a further data set is Arizona sp. The data set can be described thus: MIC, twofold serial broth dilution (Table I). The format is cell-based. To be noted: strain ISM 67/9; Tryptose Phosphate Broth; 37° C, 24 hours; read-out: Minimum inhibitory concentration (MIC).
Data set [1] deals with systemically infected mice. Put plainly: In vivo activity in systemically infected mice (overall statement). The arrangement: species or system Charles River CD 1 female mice. To be noted: treatment of systemically infected mice.
Another data set relates to Citrobacter freundii. Put plainly: MIC, twofold serial broth dilution (Table I). The class given is cell-based.

Structures are written as SMILES. Values after ≈ are worked out from the molar mass of the structure shown. Like-named read-outs stand apart in the source and are kept apart here.

On to `Cn1nnnc1SCC1=C(C(=O)O)N2C(=O)C(NC(=O)Cn3cnc([N+](=O)[O-])c3)C2SC1` (stereo not shown) [P-75123, 7-1-(1H-4-nitroimidazolyl)acetyl!amino-3-5-(1H-1-methyltetrazolyl)thio!methyl-3-cephem-4-carboxylic acid], for which the MIC in the data set on Serratia marcescens was determined as 100 µg/mL (≈ 208 µM); with Brucella abortus, 25 µg/mL (≈ 51.9 µM); with Escherichia coli, 0.78 µg/mL (≈ 1.62 µM); in the data set on Klebsiella pneumoniae (read-out: Minimum inhibitory concentration (MIC)), 1.56 µg/mL (≈ 3.24 µM); in the data set on Klebsiella pneumoniae (read-out: Minimum inhibitory concentration (MIC), clinical isolate LRP 129) it was 0.39 µg/mL (≈ 0.81 µM); with Klebsiella pneumoniae (read-out: Minimum inhibitory concentration (MIC), clinical isolate LRP 130) it was 6.25 µg/mL (≈ 13 µM). Further, the MIC in the data set with Klebsiella pneumoniae (read-out: Minimum inhibitory concentration (MIC), clinical isolate LRP 131) stood at 3.12 µg/mL (≈ 6.48 µM); in the data set with Klebsiella pneumoniae (read-out: Minimum inhibitory concentration (MIC), clinical isolate LRP 132) it was 0.39 µg/mL (≈ 0.81 µM); in the data set on Klebsiella pneumoniae (read-out: Minimum inhibitory concentration (MIC), clinical isolate LRP 133), 0.78 µg/mL (≈ 1.62 µM); in the data set with Klebsiella pneumoniae (read-out: Minimum inhibitory concentration (MIC), clinical isolate LRP 135), 3.12 µg/mL (≈ 6.48 µM); with Klebsiella pneumoniae (read-out: Minimum inhibitory concentration (MIC), clinical isolate LRP 136) it was 3.12 µg/mL (≈ 6.48 µM); in the data set with Klebsiella pneumoniae (read-out: Minimum inhibitory concentration (MIC), clinical isolate LRP 137), 0.78 µg/mL (≈ 1.62 µM). For the same molecule, the MIC was 0.78 µg/mL (≈ 1.62 µM) with Arizona sp.; 1.56 µg/mL (≈ 3.24 µM) in the data set with Citrobacter freundii (24 h, read-out: Minimum inhibitory concentration (MIC), strain ISM 65/74, Tryptose Phosphate Broth, 37° C); 0.78 µg/mL (≈ 1.62 µM) with Citrobacter freundii (strain ISM 69/30, Tryptose Phosphate Broth, 37° C, 24 hours, read-out: Minimum inhibitory concentration (MIC)). Besides, the “Minimum inhibitory concentration (MIC)” value in the data set with Klebsiella pneumoniae (clinical isolate LRP 134) was 1.56 µg/mL (≈ 3.24 µM). The Solubility in dimethylsulfoxide entry in “Solubility” (dimethylsulfoxide) is reported as “soluble in dimethylsulfoxide”. The Solubility in water entry in “Solubility” (water) was “practically insoluble in water”. In data set [1], the “activity "in vivo"” value was “very good activity”.

The values are drawn from patent publication US4073903A, “3-Desacetoxymethyl-3- 5'(1-methyltetrazolyl)thio!methyl-7- 1-(4-nitr oimidazolyl)acetyl!aminocephalosporanic acid” (Pierrel S.p.A., priority 1975, dated 1978).
